Assay results reported in patent publication US20090137641A1, “Potassium Channel Activators for the Prevention and Treatment of Dystonia and Dystonia-Like Symptoms” (priority 2006, published 2009).
Values joined by “and” are separate entries in the source; they are usually repeats but may differ in a detail not shown here. Equal entries are not always repeated. Where two headings read alike, the source gives them in different places.

Experiments:
[1] = system: dt^sz mutant hamster; type: in vivo, Syrian golden hamsters; conditions: for suppressing the symptoms of dystonia (summary statement): summary for the two animal models of dystonia/dyskinesia, no dose given; for Maximum severity 1st h, drug: individual animals and Mean, score 0-6; for Latency to onset (min), Drug: time to stage 2, mean ± S.E.; for Latency max (min), drug: latency to stage 6
Text: Animals The dt^sz mutant hamsters (Syrian golden hamsters), used in the present experiments, were obtained by selective breeding as described in detail elsewhere (Richter and Löscher, 1998). In this inbred line of mutant hamsters the motor disturbances are transmitted by a recessive gene. All animal groups consisted of male and female hamsters, because there was no indication of sex-related differences in the severity of dystonia or in the response to drugs (Richter and Löscher, 1998). The animals were born and kept under controlled environmental conditions (23-25° C., 50-60% humidity, 13 h light/11 h dark cycle) with free access to standard Altromin 7204 diet and water. In cases of oral administrations the food was deprived for 2 h prior to the experiments. All experiments were carried out in the morning (08.30-12.00 a.m.) at controlled temperatures (23-25° C.).
Induction of dystonic episodes and severity-score of dystonia. […] After this procedure, dt^sz hamsters develop a sequence of abnormal movements and postures. Dystonia is the predominant symptom in these animals. The severity of dystonia can be rated by following score-system (Richter and Löscher, 1998): stage 1, flat body posture; stage 2, facial contortions, rearing with forelimbs crossing, disturbed gait with hyperextended forepaws; stage 3, hyperextended hindlimbs so that the animals appear to walk on tiptoes; stage 4, twisting movements and loss of balance; stage 5, hindlimbs hyperextended caudally; stage 6, immobilisation in a twisted, hunched posture with hind- and forelimbs tonically extended forward. After reaching the individual maximum stage the hamsters recover within 2-5 hours. The individual maximum stage of dystonia is usually reached within 3 hours after the hamsters were placed into the new cage. Therefore, the animals have to be observed for 3 h after the induction of dystonic attacks to determine the individual maximum stage reached after administrations of drugs or of vehicle (for pre- and post-drug control recordings).
In the present study, all animals were examined for the presence of dystonia after weaning at the age of 21 days by the triple stimulation procedure, including injections of saline. […] All groups of mutant hamsters used for investigations were repeatedly tested by triple stimulations (injections of saline) every 2 to 3 days after weaning until the severity of dystonia and latencies to the different stages were reproducible. The drug experiments were done in 30-42 days old hamsters, i.e. at an age of the maximum severity of dystonia.
Drug experiments The effects of the Kv7.2/7.3 channel activators retigabine (5, 7.5 and 10 mg/kg i.p. and 10 and 20 mg/kg p.o.) and flupirtine (10 and 20 mg/kg i.p.) were examined in groups of 6-10 dt^s/z hamsters. The total number of animals used for the present experiments was 68. The compounds were freshly dissolved in saline prior the experiments. Dystonic attacks were induced by the procedure of triple stimulation, as described above, but instead of saline the active compound was injected (injection volume: 5 ml/kg i.p. or p.o.). Pre- and post-drug control trials with the vehicle (injection volume: 5 ml/kg saline i.p. or p.o.) were undertaken 2-3 days before and 2-3 days after drug testing in the same animals. […] During this period the severity of dystonia, the latencies to the different stages and the side effects were noted. The rater of the severity score (and of the latencies to stages) was unaware whether the animals were treated with vehicle or an active principle. A second person who had done the preparation of the solutions observed the animals for behavioural effects. The side effects were not quantified, but locomotor activity and ataxia were determined according to a score system, as previously described (Löscher and Richter, 1994). […]

[2] = system: L-DOPA induced dyskinesia in 6-OHDA lesioned rats; test: chronic model of L-DOPA induced dyskinesia in unilaterally 6-OHDA lesioned rats (dyskinesia score); type: in vivo; design: side effects: dose or concentration left out as unconfirmed
Text: Method: The model has been developed by Cenci, Lee and Bjorklund (L-DOPA-induced dyskinesia in the rat is associated with striatal overexpression of prodynorphin- and glutamic acid decarboxylase mRNA, Eur J. Neurosci. 1998; 10:2694-706) and was modified to show more severe dyskinesia. In brief, rats are first unilaterally lesioned in the medial forebrain bundle resulting in a near complete loss of the mesostriatal dopamine pathway. After a recovery, rats receive daily doses of both, L-DOPA and benserazide. Within less than 3 weeks, rats develop typical dyskinetic movements, both affecting their forearms and the oral regions. […] The dyskinesia can be quantified using an easy and reliable scoring system developed by Cenci et al.
Dopamine-denervating lesions were performed by unilateral injections of 8 μg 6-OHDA in the left medial forebrain bundle of female Sprague-Dawley rats. All rats were tested for amphetamine-induced rotational behaviour 2 weeks after the injection. Rats showing >4 ipsilateral rotations/min over a 90-minute period were presumed to have a striatal dopamine depletion of more than 90%. At 4 weeks post lesion, 2 groups started to receive chronic treatment with either 20 mg/kg levodopa and 15 mg/kg benserazide or vehicle for 20 days. For rating, dyskinesia was classified into three subtypes (limb, axial and orolingual) and scored from 0 (=absent) to 4 (=permanent, not suppressible) over 200 minutes and every 30 minutes.
Results and Discussion: For drug testing, retigabine (2.5 and 5 mg/kg) was administered additional to levodopa and vehicle respectively. Effects of drug action in comparison to vehicle controls were detected by adding up the severity scores of each observation time.
To test the effect of flupirtine, the compound was administered at the dose of 10 mg/kg i.p. after administration of L-DOPA in these rats. A full cross over design was utilized to account for individual variability. […] The studies are ongoing and will we extended to cover a full dose range. Also, other neuronal potassium channel openers covered by the patent application will be tested. […]

[3] = mean of 10 animals, 20 mg/kg i.p., age 36-38 days of life
[4] = 20 mg/kg p.o., first hour after administration

O=C1c2ccccc2C(Cc2ccncc2)(Cc2ccncc2)c2ccccc21 [XE-991, 10,10-bis(4-pyridinylmethyl)-9(10H)-anthracenone]
side effects ([1]; 6 mg/kg as printed, two out of 8 animals, facial contortions 10-20 min after administration): moderate to unequivocal hyperlocomotion and moderate ataxia (up to 180 min) and marked initial facial contortions
latency to onset of dystonia ([1]; i.p., not illustrated): tended to be decreased
side effects ([1]; the higher dose, all hamsters): facial contortions, salivation and increased defecation
side effects: locomotion and ataxia ([1]; the higher dose, first h after administration): unequivocal hyperlocomotion and ataxia

COc1ccc(Cl)cc1C1(F)C(=O)Nc2cc(C(F)(F)F)ccc21 (stereo not shown) [maxipost, 3-(5-chloro-2-methoxyphenyl)-1,3-dihydro-3-fluoro-6-(trifluoromethyl)-2H-indole-2-one]
suppressing the symptoms of dystonia (summary statement) [1]: found to be active

CCOC(=O)Nc1ccc(NCc2ccc(F)cc2)nc1N [Flupirtine, ethyl-N-[2-amino-6-(4-fluorophenylmethylamino)pyridin-3-yl]-carbamate]
tolerability ([2]; 10 mg/kg i.p. after administration of L-DOPA): well tolerated
dyskinetic symptoms ([2]; 10 mg/kg i.p. after administration of L-DOPA, cross over design): capable of suppressing the typical dyskinetic symptoms
antidystonic effects ([1]; 10 mg/kg i.p.): did not exerted significant antidystonic effects
Maximum severity 1st h, drug ([1]; 10 mg/kg i.p.): 3 score (6×) and 2 score (2×)
Latency to onset (min), Drug ([1]; 10.0 mg/kg i.p., n=8): 6.9 ± 1.6 min
adverse effects ([1]; 10 mg/kg i.p., within the first hour after administration): moderate hypolocomotion and ataxia
ataxia ([1]; 20 mg/kg i.p.): more marked ataxia (lasting up to 90 min)
latency to onset of dystonia ([1]; 20 mg/kg i.p.): increased the latency to onset of dystonia
progression of dystonia ([1]; 20 mg/kg i.p., first and second h): delayed the progression of dystonia
locomotion ([1]; 20 mg/kg i.p., hyperlocomotion 15-60 min after injection): unequivocal hypolocomotion (5 to 15 min after injection) followed by hyperlocomotion
maximum severity of dystonia ([1]; 20 mg/kg i.p., third h): reduced the maximum severity
Latency to onset (min), Drug ([1]; 20.0 mg/kg i.p., n=10, *P<0.05): 13.8 ± 3.8* min
Maximum severity 1st h (score of dystonia), drug ([1]; individual animals, 20 mg/kg i.p. (in 0.9% NaCl), dt^sz hamsters, age 36-38 days of life): 2 score
Latency max (latency to stage 6), drug ([1]; individual animals, 20 mg/kg i.p., age 36-38 days of life): 154 min
Latency onset (latency on stage 2), drug, Mean [1, 3]: 13.8 min
Maximum severity 1st h (score of dystonia), drug, Mean [1, 3]: 2.0 score
Maximum severity 2nd h (score of dystonia), drug, Mean [1, 3]: 2.6 score
Maximum severity 3rd h (score of dystonia), drug, Mean [1, 3]: 2.9 score
suppressing the symptoms of dystonia (summary statement) [1]: found to be effective

CCOC(=O)Nc1ccc(NCc2ccc(F)cc2)cc1N [Retigabine, 2-amino-4-(4-fluorobenzylamino)-1-ethoxycarbonyl-aminobenzene]
side effects ([2]; higher dosage, first hour of observation): marked hypolocomotion and ataxia
Latency max (min), drug ([1]; 5 mg/kg i.p., individual animals): 43 min and 87 min and 39 min
Latency to onset (min), Drug ([1]; 5.0 mg/kg i.p., n=9): 27.1 ± 17.7 min
Latency max (min), drug ([1]; 7.5 mg/kg i.p., individual animals): 149 min
Latency to onset (min), Drug ([1]; 7.5 mg/kg i.p., n=6, *P<0.05): 11.8 ± 1.0* min
pain after injection ([1]; 10 mg/kg i.p., first 5 min after injection): writhed with pain
Latency to onset (min), Drug ([1]; 10.0 mg/kg i.p., n=9): 7.1 ± 2.9 min
Maximum severity 1st h, drug ([1]; 10 mg/kg p.o.): 3 score (6×) and 2 score
Latency max (min), drug ([1]; 10 mg/kg p.o., individual animals): 168 min and 148 min
Latency to onset (min), Drug ([1]; 10.0 mg/kg p.o., n=7): 4.9 ± 2.9 min
locomotor activity ([1]; 10 mg/kg p.o., two hamsters): moderate reduction of the locomotor activity
ataxia [1, 4]: seven animals exhibited moderate ataxia
hypolocomotion [1, 4]: five hamsters showed moderate hypolocomotion
Maximum severity 1st h, drug ([1]; 20 mg/kg p.o.): 2 score (9×) and 3 score
Latency max (min), drug ([1]; 20 mg/kg p.o., individual animals): 104 min
Latency to onset (min), Drug ([1]; 20.0 mg/kg p.o., n=10): 9.6 ± 2.0 min
general condition ([1]; four hamsters, 5 mg/kg i.p. five days after 10 mg/kg i.p., one euthanized, dilated colon): bad general condition
behavioural effects ([1]; i.p. injection, within the first h after administration): moderate to unequivocal hypolocomotion (sometimes interrupted by short lasting periods of increased locomotor activity) and ataxia
side effects ([1]; oral doses of 10 and 20 mg/kg): did not exert severe side effects
